In US20240115540A1, “METHODS FOR PROVIDING HEALTH BENEFITS IN ANIMALS” (Société des Produits Nestlé S.A., priority 2022, published 2024):

Tested on: db/db mice
Test: CKD mice study: db/db mice fed test diets for 8 weeks (glomerular hyperfiltration, glycogen storage, kidney histology)
Assay type: in vivo
Experimental: The present study used db/db mice at 8 weeks of age for 8 weeks of intervention. The mice were divided into 4 groups of 9-10 mice administered with different blends (the Control group was administered with standard AIN-93M diet, the Dapa Group was administered standard AIN-93M augmented with dapagliflozin at 10 mg/kg, the RPB group was administered a standard diet augmented with a renal protection blend, the RPB+ group was administered a standard diet augmented with a renal protection blend that included medium chain triglycerides); the diets are shown in Table 1. The blends were administered to study glomerular hyperfiltration and glycogen storage in tissues. Final weekly food intake, final body weight, final blood glucose level, final lean body mass, and final fat mass of the groups is presented in Table 2. Also presented in table 2 were GFR progression, urine albumin/creatine ratio, urine protein/creatinine ratio, glomerulosclerosis score, Periodic acid-Schiff (PAS) staining scores for distal convoluted tubule (DCT) lumen, PAS staining scores for intranuclear inclusions distal tubules, and PAS staining scores for cytoplamis aggregates distal tubules.
In addition to the measurements of Table 2, the mice were measured for hyalinosis on a scoring system of no hyalinosis, intermediate hyalinosis, or severe hyalinosis, where hyalinosis refers to the thickening of the walls of the glomerular arterioles by the deposits of homogenous hyaline material. […] The control group had 1 mouse with no hyalinosis, 4 mice with intermediate hyalinosis, and 4 with significant hyalinosis; the dapa group had 2 mice with no hyalinosis, 5 mice with intermediate hyalinosis, and 2 mice with significant hyalinosis, the RPB group had 5 mice with no hyalinosis, 4 mice with intermediate hyalinosis, and 1 mouse with significant hyalinosis, and the RPB+ group had 2 mice with no hyalinosis and 8 mice with intermediate hyalinosis.

[1] = glomerular arterioles, groups of 9-10
[2] = kidney tissue, 8 weeks of intervention

Compound: CCOc1ccc(Cc2cc([C@@H]3O[C@H](CO)[C@@H](O)[C@H](O)[C@H]3O)ccc2Cl)cc1 [Dapa, dapagliflozin]
- GFR progression (8 weeks of intervention): 0.01 mL/min
- Blood glucose (final) (after 8 weeks of intervention): 464.78 mg/dL
- Fat mass (final) (after 8 weeks of intervention): 23.99 g
- Lean mass (final lean body mass) (after 8 weeks of intervention): 15.31 g
- number of mice with intermediate hyalinosis [1]: 5 mice
- number of mice with no hyalinosis [1]: 2 mice
- number of mice with significant (severe) hyalinosis [1]: 2 mice
- Glomerulosclerosis score [2]: 1.83
- PAS DCT lumen (PAS staining score, distal convoluted tubule lumen) [2]: 1.44
- PAS cytoplasmic aggregates DT (PAS staining score, distal tubules) [2]: 1.78
- PAS intranuclear inclusions DT (PAS staining score, distal tubules) [2]: 2.11
- Albumin/Creatinine ratio (urine, 8 weeks of intervention): 181.54
- Protein/Creatinine ratio (urine, 8 weeks of intervention): 36.92
